# Values of other authors in patent publication US9597338B2, “Shell-and-core dosage form approaching zero-order drug release” (Depomed, Inc., priority 2000, dated 2017).
# Conditions: oral; doses administered with or following a meal
smiles,measurement,value
Cc1c(O)cccc1C(=O)N[C@@H](CSc1ccccc1)[C@H](O)CN1C[C@H]2CCCC[C@H]2C[C@H]1C(=O)NC(C)(C)C [nelfinavir],Area under the plasma concentration-time curve with or following a meal,two to three times greater
same,Peak plasma concentration with or following a meal,two to three times greater
